Laboratory results: patent US20240174618A1, “SUBSTITUTED (2-HETEROARYLOXYPHENYL)SULFONATES, SALTS THEREOF AND THEIR USE AS HERBICIDAL AGENTS” (Bayer Aktiengesellschaft, priority 2021, published 2024)

How the values were obtained:
Type in all cases: in vivo
[1] = test system: Amaranthus retroflexus (AMARE); experiment: B. Herbicidal post-emergence efficacy, AMARE
Method in brief: (§1)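 Weeds grown in sandy loam in greenhouse pots, sprayed at one-leaf stage (2–3 weeks after sowing) with WP or EC formulations as aqueous suspension/emulsion plus 0.5% additive at 600 L/ha water, rates up to 1280 g/ha. Visual efficacy rated about 3 weeks later versus untreated controls (0% = like control, 100% = dead).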

Stellaria media (STEME) [2] = experiment: A. Herbicidal pre-emergence efficacy, STEME
Method in brief: (§2)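 Applied before emergence onto covering soil at rates of 1280 g/ha or less, using 600 L/ha spray water with 0.5% additive. Scoring: visual % efficacy after ~3 weeks, greenhouse.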

[3] = test system: Amaranthus retroflexus (AMARE); experiment: A. Herbicidal pre-emergence efficacy, AMARE
Method in brief: as §2

Poa annua (POAAN) [4] = experiment: A. Herbicidal pre-emergence efficacy, POAAN
Method in brief: as §2

Lolium rigidum (LOLRI) [5] = experiment: B. Herbicidal post-emergence efficacy, LOLRI; conditions: 1280 g/ha
Method: Seeds of mono- and dicotyledonous weed plants were placed in plastic pots in sandy loam soil (doubly sown with in each case one species of mono- or dicotyledonous weed plants per pot), covered with soil and cultivated in a greenhouse under controlled growth conditions. 2 to 3 weeks after sowing, the test plants were treated at the one-leaf stage. The compounds of the invention, formulated in the form of wettable powders (WP) or as emulsion concentrates (EC), were applied onto the green parts of the plants as aqueous suspension or emulsion with addition of 0.5% additive at a water application rate of 600 liters per hectare (converted). After the test plants had been kept in the greenhouse under optimum growth conditions for about 3 weeks, the activity of the preparations was rated visually in comparison to untreated controls.
For example, • 100% efficacy=plants have died, • 0% efficacy=like untreated control plants
Tables B1a to B12c below show the effects of selected inventive compounds of the general formula (I) according to table 1 on various harmful plants at an application rate corresponding to 1280 g/ha or less, which were obtained by the experimental procedure mentioned above.

[6] = test system: Echinochloa crus-galli (ECHCG); experiment: B. Herbicidal post-emergence efficacy, ECHCG; conditions: rated visually after about 3 weeks
Method in brief: as §1

[7] = test system: Digitaria sanguinalis (DIGSA); experiment: A. Herbicidal pre-emergence efficacy, DIGSA; conditions: scored visually after about 3 weeks vs untreated controls
Method in brief: as §2

Veronica persica (VERPE) [8] = experiment: B. Herbicidal post-emergence efficacy, VERPE
Method in brief: as §1

Stellaria media (STEME) [9] = experiment: B. Herbicidal post-emergence efficacy, STEME
Method in brief: as §1

Poa annua (POAAN) [10] = experiment: B. Herbicidal post-emergence efficacy, POAAN
Method in brief: as §1

[11] = test system: Abutilon theophrasti (ABUTH); experiment: B. Herbicidal post-emergence efficacy, ABUTH; conditions: rated visually after about 3 weeks
Method in brief: as §1

Setaria viridis (SETVI) [12] = experiment: A. Herbicidal pre-emergence efficacy, SETVI
Method in brief: as §2

Kochia scoparia (KCHSC) [13] = experiment: B. Herbicidal post-emergence efficacy, KCHSC; conditions: 1280 g/ha
Method in brief: as §1

Zea mays (ZEAMX) [14] = experiment: D. Pre-emergence effect on useful plants, ZEAMX; conditions: useful plant
Excerpt: (§3) Seeds of monocotyledonous and dicotyledonous weed plants and crop plants were placed in plastic or organic planting pots and covered with soil. The compounds of the invention, formulated in the form of wettable powders (WP) or as emulsion concentrates (EC), were then applied to the surface of the covering soil as aqueous suspension or emulsion with addition of 0.5% additive at a water application rate equivalent to 600 l/ha (converted). After the treatment, the pots were placed in a greenhouse and kept under good growth conditions for the test plants. After about 3 weeks, the efficacy of the preparations was scored visually in comparison with untreated controls as percentages. For example, • 100% efficacy=plants have died, • 0% efficacy=like untreated control plants.
Tables D1a to D5b below show the effects of selected compounds of the general formula (I) according to table 1 on various useful plants at an application rate corresponding to 320 g/ha or less, which were obtained by the experimental procedure mentioned above.

[15] = test system: Triticum aestivum (TRZAS); experiment: F. Post-emergence effect on useful plants, TRZAS; conditions: useful plant
Method: (§4) Seeds of monocotyledonous and dicotyledonous weeds and crop plants were placed in sandy loam in plastic or organic planting pots, covered with soil and cultivated in a greenhouse under controlled growth conditions. 2 to 3 weeks after sowing, the test plants were treated at the one-leaf stage. The compounds of the invention, formulated in the form of wettable powders (WP) or as emulsion concentrates (EC), were then sprayed onto the green parts of the plants as aqueous suspension or emulsion with addition of 0.5% additive at a water application rate of 600 l/ha (converted). After the test plants had been kept in the greenhouse under optimum growth conditions for about 3 weeks, the activity of the preparations was rated visually in comparison to untreated controls.
(§5) For example, • 100% efficacy=plants have died, • 0% action=like untreated control plants.
(§6) Tables F1a to F4 below show the effects of selected compounds of the general formula (I) according to table 1 on various useful plants at an application rate corresponding to 320 g/ha or less, which were obtained by the experimental procedure mentioned above.

Veronica persica (VERPE) [16] = experiment: E. Herbicidal post-emergence efficacy, VERPE
Method: as §4, §5
(§7) Tables E1a to E12b below show the effects of selected compounds of the general formula (I) according to table 1 on various harmful plants at an application rate corresponding to 320 g/ha or less, which were obtained by the experimental procedure mentioned above.

Viola tricolor (VIOTR) [17] = experiment: C. Herbicidal pre-emergence efficacy, VIOTR
Excerpt: as §3
(§8) Tables C1a to C14b below show the effects of selected compounds of the general formula (I) according to table 1 on various harmful plants at an application rate corresponding to 320 g/ha or less, which were obtained by the experimental procedure mentioned above.

[18] = test system: Pharbitis purpurea (PHBPU); experiment: E. Herbicidal post-emergence efficacy, PHBPU; conditions: application rate 320 g/ha
Method: as §4, §5, §7

[19] = test system: Amaranthus retroflexus (AMARE); experiment: E. Herbicidal post-emergence efficacy, AMARE
Method: as §4, §5, §7

Zea mays (ZEAMX) [20] = experiment: F. Post-emergence effect on useful plants, ZEAMX; conditions: useful plant
Method: as §4, §5, §6

Setaria viridis (SETVI) [21] = experiment: C. Herbicidal pre-emergence efficacy, SETVI; conditions: 320 g/ha, scored after about 3 weeks
Excerpt: as §3, §8

Veronica persica (VERPE) [22] = experiment: C. Herbicidal pre-emergence efficacy, VERPE; conditions: 320 g/ha, scored after about 3 weeks
Excerpt: as §3, §8

[23] = test system: Abutilon theophrasti (ABUTH); experiment: E. Herbicidal post-emergence efficacy, ABUTH; conditions: application rate 320 g/ha
Method: as §4, §5, §7

Kochia scoparia (KCHSC) [24] = experiment: C. Herbicidal pre-emergence efficacy, KCHSC; conditions: application rate 320 g/ha
Excerpt: as §3, §8

[25] = test system: Echinochloa crus-galli (ECHCG); experiment: E. Herbicidal post-emergence efficacy, ECHCG; conditions: application rate 320 g/ha
Method: as §4, §5, §7

[26] = test system: Amaranthus retroflexus (AMARE); experiment: C. Herbicidal pre-emergence efficacy, AMARE; conditions: scored after about 3 weeks
Excerpt: as §3, §8

Lolium rigidum (LOLRI) [27] = experiment: C. Herbicidal pre-emergence efficacy, LOLRI; conditions: 320 g/ha, scored after about 3 weeks
Excerpt: as §3, §8

[28] = test system: Echinochloa crus-galli (ECHCG); experiment: C. Herbicidal pre-emergence efficacy, ECHCG; conditions: 320 g/ha, scored after about 3 weeks
Excerpt: as §3, §8

[29] = test system: Digitaria sanguinalis (DIGSA); experiment: C. Herbicidal pre-emergence efficacy, DIGSA; conditions: scored after about 3 weeks
Excerpt: as §3, §8

Kochia scoparia (KCHSC) [30] = experiment: E. Herbicidal post-emergence efficacy, KCHSC; conditions: application rate 320 g/ha
Method: as §4, §5, §7

Viola tricolor (VIOTR) [31] = experiment: E. Herbicidal post-emergence efficacy, VIOTR; conditions: application rate 320 g/ha
Method: as §4, §5, §7

Which results are given for `Cc1cccc(Oc2ncc(Cl)cn2)c1OS(=O)(=O)CC1CC1(Cl)Cl` (stereo not shown) [Example I-76]?
Post-emergence efficacy against AMARE ([1]; 80 g/ha): 90%; Post-emergence efficacy against AMARE ([1]; 320 g/ha): 100%; Post-emergence efficacy against AMARE ([1]; 1280 g/ha): 100%; Pre-emergence efficacy against STEME (Stellaria media (STEME) [2]; dosage 80 g/ha): 90%; Pre-emergence efficacy against STEME (Stellaria media (STEME) [2]; dosage 320 g/ha): 90%; Pre-emergence efficacy against STEME (Stellaria media (STEME) [2]; dosage 1280 g/ha): 100%; Pre-emergence efficacy against AMARE in % ([3]; 320 g/ha): 90%; Pre-emergence efficacy against AMARE in % ([3]; 1280 g/ha): 100%; Pre-emergence efficacy against POAAN (Poa annua (POAAN) [4]; dosage 320 g/ha): 90%; Pre-emergence efficacy against POAAN (Poa annua (POAAN) [4]; dosage 1280 g/ha): 90%; Post-emergence efficacy against LOLRI (Lolium rigidum (LOLRI) [5]): 90%; Post-emergence efficacy against ECHCG in % ([6]; 320 g/ha): 90%; Post-emergence efficacy against ECHCG in % ([6]; 1280 g/ha): 100%; Pre-emergence efficacy against DIGSA ([7]; 320 g/ha): 90%; Pre-emergence efficacy against DIGSA ([7]; 1280 g/ha): 90%; Post-emergence efficacy against VERPE (Veronica persica (VERPE) [8]; 80 g/ha): 90%; Post-emergence efficacy against VERPE (Veronica persica (VERPE) [8]; 320 g/ha): 100%; Post-emergence efficacy against VERPE (Veronica persica (VERPE) [8]; 1280 g/ha): 100%; Post-emergence efficacy against STEME (Stellaria media (STEME) [9]; 80 g/ha): 90%; Post-emergence efficacy against STEME (Stellaria media (STEME) [9]; 320 g/ha): 100%; Post-emergence efficacy against STEME (Stellaria media (STEME) [9]; 1280 g/ha): 100%; Post-emergence efficacy against POAAN (Poa annua (POAAN) [10]; 320 g/ha): 90%; Post-emergence efficacy against POAAN (Poa annua (POAAN) [10]; 1280 g/ha): 100%; Post-emergence efficacy against ABUTH in % ([11]; 80 g/ha): 90%; Post-emergence efficacy against ABUTH in % ([11]; 320 g/ha): 90%; Post-emergence efficacy against ABUTH in % ([11]; 1280 g/ha): 100%; Pre-emergence efficacy against SETVI (Setaria viridis (SETVI) [12]; dosage 320 g/ha): 100%; Pre-emergence efficacy against SETVI (Setaria viridis (SETVI) [12]; dosage 1280 g/ha): 100%; Post-emergence efficacy against KCHSC (Kochia scoparia (KCHSC) [13]): 90%

For `Cc1cccc(Oc2ncc(Cl)cn2)c1OS(=O)(=O)CC=C(Cl)Cl` [Example I-83], which “Pre-emergence efficacy against ZEAMX in %” value (Zea mays (ZEAMX) [14]; application rate 80 g/ha) is on record?
The value was 0%.

What about the “Pre-emergence efficacy against ZEAMX in %” value (Zea mays (ZEAMX) [14]; application rate 320 g/ha) of the same compound?
The value was 0%.

What about the “Post-emergence efficacy against TRZAS in %” value ([15]; application rate 80 g/ha) of the same compound?
Its value is 0%.

And the “Post-emergence efficacy against TRZAS in %” value ([15]; application rate 320 g/ha)?
The value was 20%.

What about the “Post-emergence efficacy against VERPE in %” value (Veronica persica (VERPE) [16]; application rate 80 g/ha) of the same compound?
The value was 80%.

And the “Post-emergence efficacy against VERPE in %” value (Veronica persica (VERPE) [16]; application rate 320 g/ha)?
The value was 100%.

What about the “Pre-emergence efficacy against VIOTR in %” value (Viola tricolor (VIOTR) [17]; application rate 80 g/ha) of the same compound?
The value was 90%.

And the “Pre-emergence efficacy against VIOTR in %” value (Viola tricolor (VIOTR) [17]; application rate 320 g/ha)?
The value was 100%.

And the “Post-emergence efficacy against PHBPU in %” value [18]?
Its value is 100%.

What about the “Post-emergence efficacy against AMARE in %” value ([19]; application rate 80 g/ha) of the same compound?
Its value is 90%.

And the “Post-emergence efficacy against AMARE in %” value ([19]; application rate 320 g/ha)?
Its value is 100%.

And the “Post-emergence efficacy against ZEAMX in %” value (Zea mays (ZEAMX) [20]; application rate 80 g/ha)?
The value was 10%.

What about the “Post-emergence efficacy against ZEAMX in %” value (Zea mays (ZEAMX) [20]; application rate 320 g/ha) of the same compound?
Its value is 20%.

What about the “Pre-emergence efficacy against SETVI” value (Setaria viridis (SETVI) [21]) of the same compound?
The value was 100%.

And the “Pre-emergence efficacy against VERPE” value (Veronica persica (VERPE) [22])?
The value was 90%.

And the “Post-emergence efficacy against ABUTH in %” value [23]?
The value was 80%.

And the “Pre-emergence efficacy against KCHSC in %” value (Kochia scoparia (KCHSC) [24])?
Its value is 80%.

And the “Post-emergence efficacy against ECHCG in %” value [25]?
Its value is 80%.

What about the “Pre-emergence efficacy against AMARE” value ([26]; 80 g/ha) of the same compound?
Its value is 80%.

And the “Pre-emergence efficacy against AMARE” value ([26]; 320 g/ha)?
Its value is 100%.

What about the “Pre-emergence efficacy against LOLRI” value (Lolium rigidum (LOLRI) [27]) of the same compound?
The value was 80%.

What about the “Pre-emergence efficacy against ECHCG” value [28] of the same compound?
The value was 90%.

What about the “Pre-emergence efficacy against DIGSA” value ([29]; 80 g/ha) of the same compound?
Its value is 80%.

What about the “Pre-emergence efficacy against DIGSA” value ([29]; 320 g/ha) of the same compound?
Its value is 100%.

And the “Post-emergence efficacy against KCHSC in %” value (Kochia scoparia (KCHSC) [30])?
The value was 80%.

And the “Post-emergence efficacy against VIOTR in %” value (Viola tricolor (VIOTR) [31])?
The value was 100%.
